# Test results taken from US20160175224A1, “ANTIPERSPIRANT COMPOSITION” (priority 2014, published 2016).
# Tested on: subjects' underarms
# Assay: In vivo study of eight-hour antiperspirant efficacy (FDA Guidelines for Effectiveness Testing of OTC Antiperspirant Drug Products, hot room, weighed pads)
# Design: species or system human
# Conditions: for Antiperspirant activity against FDA Guidelines success criteria (minimum of 20% sweat reduction in at least 50% volunteers): eight-hour efficacy, day 30 of application period; for % of subjects with reduction in relation to control / Average % of sweat reduction (mg): roll-on compositions of Examples 7-9 applied daily to one underarm for 30 days, eight hours after, hot room 37.8° C.; for % of subjects with reduction in relation to control: other underarm untreated control, 30-40% RH, 80 minutes, fifteen subjects per composition; for Average % of sweat reduction (mg): relative to untreated control underarm, pad weights
# Protocol: An in vivo study of the eight-hour antiperspirant efficacy of the compositions of Examples 7, 8 and 9 was performed as follows using the US FOOD AND DRUG ADMINISTRATION Guidelines for Effectiveness Testing of OTC Antiperspirant Drug Products, 2003. Example 7 was comparative, as indicated above.
# Fifteen subjects were used to test each composition. Subjects were first subjected to a 21-day conditioning period, which began with a 14 day wash out period. During 14 day wash out period, the subjects used a standard bar soap and bacteriostatic deodorant supplied by the institute running the study. […] Following this, from day 15 to day 21 the subjects were instructed to use only standard soap and discontinue the bacteriostatic deodorant.
# During the conditioning period, subjects were instructed and supervised by a trained technician to wash their underarms according to the following procedure: a) wash one of the underarms for 10 seconds with an aqueous solution of standard soap 2.0%; b) rinse thoroughly with running water until the soap is completely removed; c) dry the underarm with a paper towel; and d) repeat the procedure with the other underarm.
# After the wash out period was completed, each subject was checked for unauthorized use of antiperspirant products during the conditioning period using a cotton swab in the underarms.
# Next, a 30 day application period began. 150 cm^2, randomly distributed areas were marked on each subjects' underarm. Test samples were then applied to one underarm of each subject, while the other underarm was untreated as a control every day during the 30 day application period. Subjects waxed or shaved their underarms every Friday evening.
# On day 30 of the 30 day application period, each subject was provided with a 100% cotton t-shirt previously washed with water and neutral soap without fragrance and again washed only with water. The subjects were instructed to wear the T-shirts for eight hours.
# After eight hours, the subjects were placed in a room at 37.8° C.±1° C. and relative humidity between 30% and 40% for 80 minutes. After 40 minutes in the hot room, pads previously weighed and stored in closed polyethylene bags were removed from the bags and placed immediately onto the subjects' underarms, and then replaced every 20 minutes. Subjects ingested 200 mL of water when entering the hot room and also 40 minutes later in order to maintain the internal level of hydration, allowing the sweat to flow freely and evidencing only the effects of the formulation of the product tested. The initial 40 minute period was considered as an acclimatization period.
# Used pads were collected every 20 minutes and weighed. The weights of the pads pre- and post-use were compared according to the FDA Guidelines using statistical analysis with the Wilcoxon Signed Rank test (FDA protocol) and the Student-t test paired with the unilateral hypothesis of improvement for sweating assessment. The confidence level considered in the comparative analysis was 95%. Software: XLSTAT 2013 and MINITAB 14.
Substance,Antiperspirant activity against FDA Guidelines success criteria (minimum of 20% sweat reduction in at least 50% volunteers),% of subjects with reduction in relation to control,Average % of sweat reduction (mg),Average % of sweat reduction (mg) (listed as acetyl hexapeptide-8)
acetyl hexapeptide-8 [reference compound],did not meet success criteria,66.7%,8.0%,8.0%
acetyl octapeptide-3,confirms antiperspirant activity,81.8%,20.7%,–
dipeptide diaminobutyroyl benzylamide diacetate,confirms antiperspirant activity,92.3%,25.6%,–
